Legend:
Assay type in all cases: cell-based
[1] = system: Human iPSCs derived inner ear organoid; assay: ECAD and PAX2 expression by confocal microscopy (ectodermal cell fate); settings: day 20; treated aggregates, compared with Koehler method
Experimental: (§1) FIG. 1 illustrates methods for generating inner ear hair cells from the induced pluripotent stem cells. The inventor added a combination of agents and inhibitors at developmental stages of the inner ear organoid culture to produce the invention. In particular: • (i) ROCK inhibitor (Y-27632) is added to iPSC in suspension culture to promote the formation of three-dimensional embryoid bodies for about 3 days. • (ii) TGF-β inhibitor (SB-431542) is added at low concentration of FGF to drive the development of non-neural ectoderm in days 0 to 3. • (iii) The cultures are then transitioned to medium containing a high concentration of FGF and BMP inhibitor (LDN-193189) during days 4-7, which drives development of the early pre-otic placodal epithelium/pre-placodal ectoderm. • (iv) Next, Wnt agonist (CHIR-99021) is added to stimulate development of otic placode from days 8-11, otic pit formation from days 12-14 and otic prosensory vesicles from days 15-17. • (v) From days 18-32, hedgehog signalling inhibitor (CYC, GANT58 or GANT61) is added to promote the formation of sensory epithelium vesicles, and continued culture under these conditions results in the formation of sensory hair cells with neural innervation from day 33 onwards.
To identify the ectodermal cell fate of inner ear organoids at Day 20-40, the ECAD and PAX2 expression in organoids was observed by using confocal microscopy, comparing organoids developed using (a) Koehler's method without Hh inhibitors, (b) the method of Example 1 with cyclopamine as the SHH inhibitor (Example 2), (c) the method of Example 1 with GANT58 as the SHH inhibitor (Example 3) and (d) the method of Example 1 with GANT61 as the SHH inhibitor (Example 4). […] The ectodermal cell fate of the inner ear organoids developed better with the SHH inhibitors compared with the Koehler method. […] The formation of ectodermal cell appeared to be continuous, beginning on day 7 until approximately day 20-40.

[2] = system: Human iPSCs derived inner ear organoid; assay: Single cell RNA sequencing and TaqMan qRT-PCR cell fate analysis; settings: for inner ear hair cell differentiation in comparison with organoids developed using the Koehler method: RNA sequencing and TaqMan qRT-PCR, FIGS. 15 and 16; for hair cell and neuronal markers by single cell RNA sequencing: organoids at Day 60, Koehler method ~57.88%
Experimental: FIG. 1 illustrates methods for generating inner ear hair cells from the induced pluripotent stem cells. The inventor added a combination of agents and inhibitors at developmental stages of the inner ear organoid culture to produce the invention.
To verify the hair cell marker genes in RNAseq transcriptome analysis, quantitative TaqMan® real-time polymerase chain reaction (qRT-PCR) in inner ear organoids was performed to identify the level of hair cell gene expression. FIG. 15 illustrates sensory hair cell-specific gene expression analysis on human iPSCs derived inner ear organoid at Day 60 by single cell RNA sequencing transcriptome analysis. FIG. 16 illustrates otic epithelial-specific gene expression in inner ear organoids at Day 20 and inner ear sensory cell-specific gene expression in inner ear organoids at Day 60 by TaqMan® qRT-PCR analyses. The presence of MyoVI represents inner ear hair cell differentiation.

[3] = system: Human iPSCs derived inner ear organoid; assay: MyosinVIIa and Tuj1 immunostaining with confocal imaging (sensory hair cells and nerve innervation); settings: for sensory hair cells and supporting cells in organoids / sensory hair cells and neuronal cells in organoids: day 33-60; for sensory hair cells and supporting cells in organoids: FIG. 14; for sensory hair cells and neuronal cells in organoids: FIG. 17; for inner ear hair cells and nerve innervation detected: inhibitor 1 μM from day 18, removed day 33, 10% Matrigel
Experimental: as §1
On day 18, the SHH inhibitor cyclopamine (CAT 239803 from Merck Millipore) was added to the cell culture to reach a final concentration of 1 μM. Matrigel® was also added to the cell culture to reach a concentration of 10%. The cells were cultured in organoid maturation medium until day 33.
On day 33, the cyclopamine was removed from the medium by washing and the droplet aggregates were remained in the cell culture containing 10% Matrigel®.
The cells were then cultured for up to 200 days in the Organoid Maturation Medium containing 10% Matrigel®. 200 μL of medium was changed daily for each well. The cells were cultured until 60-100 days, until an examination of the cell's morphology determined maturation. The viable, medium size and round 3D shape organoids with inner ear sensory cell gene expression markers were selected for analysis.
Inner ear hair cells and nerve innervation was detected after Day 35. The presence and number of inner ear hair cells was detected by immunostaining and capture with confocal imaging.
(§2) To identify the development of sensory hair cells of inner ear organoids at Day 33-60, the MyosinVIIa and Tuj1 expression in organoids was observed by using confocal microscopy. The results are presented in FIG. 14, which compares organoids developed using (a) the method of Example 1 with cyclopamine (Example 2), and (b) the method of Example 1 with GANT58 (Example 2). […] An opaque outer cell mass is indicative of complete re-organization, which was found in organoids developed using each of the SHH inhibitors. In comparison, less translucent epithelium indicative of incomplete or partial re-organization was found in organoids developed using the Koehler method. Sensory hair cell epithelium through the aggregate surface was found in organoids developed using each SHH inhibitor.
as §2, with “MyoVIIa” for “MyosinVIIa”, “17,” for “14,”, “3) and GANT61 (Example 4).” for “2).”, “inhibitors.” for “inhibitors. In comparison, less translucent epithelium indicative of incomplete or partial re-organization was found in organoids developed using the Koehler method.”

[4] = system: Human iPSCs derived inner ear organoid; assay: SOX2 and Tuj1 expression by confocal microscopy; settings: day 33-60; FIG. 18
Experimental: as §1
To identify the development of sensory hair cells of inner ear organoids at Day 33-60, the SOX2 and Tuj1 expression in organoids was observed by using confocal microscopy. The results are presented in FIG. 18, which compares organoids developed using (a) the method of Example 1 with cyclopamine (Example 2), and (b) the method of Example 1 with GANT58 (Example 3) and GANT61 (Example 4).

| SMILES | abundance of ECAD/PAX2 positive vesicles with a luminal diameter greater than 50 μm [1] | inner ear hair cell differentiation in comparison with organoids developed using the Koehler method [2] | hair cell and neuronal markers by single cell RNA sequencing [2] [%] | sensory hair cells and supporting cells in organoids [3] | sensory hair cells and neuronal cells in organoids [3] | inner ear hair cells and nerve innervation detected [3] [days] | supporting cells and neuronal cells in organoids [4] |
| --- | --- | --- | --- | --- | --- | --- | --- |
| c1cc(-c2sc(-c3ccncc3)c(-c3ccncc3)c2-c2ccncc2)ccn1 [GANT58] | higher abundance | greater inner ear hair cell differentiation | ~91.88 | present | present | > 35 | present |
| CC1=C2C[C@H]3[C@@H](CC=C4C[C@@H](O)CC[C@@]43C)[C@@H]2CC[C@]12O[C@@H]1C[C@H](C)CN[C@H]1[C@H]2C [cyclopamine] | higher abundance | greater inner ear hair cell differentiation | ~74.48 | present | present | > 35 | present |
| CN(C)c1ccccc1CN1CCCN(Cc2ccccc2N(C)C)C1c1ccncc1 [GANT61] | higher abundance | greater inner ear hair cell differentiation | – | – | present | > 35 | present |

Source: US20240060040A1, “METHODS FOR GENERATING INNER EAR HAIR CELLS” (Ear Science Institute Australia, priority 2020, published 2024)
